Measurements: patent US20240165214A1, “COMPOSITIONS AND METHODS FOR STABILIZATION OF ALLOSTERIC PROTEINS” (priority 2021, published 2024)

How the values were obtained:
[1] = tested on: HRP; assay type: binding; conditions: fimbriae pre-treated with mAb824
Method: The assays were performed as described previously. In brief. 96-well microtiter plates were coated overnight with purified type 1 fimbriae in 0.02 M NaHCO3 buffer at pH 9.6 (0.1 mg/ml), followed by washes and quenching with 0.2% BSA in PBS. The immobilized fimbriae were incubated with HRP at a concentration of 50 μg/ml for 1 h in the absence or presence of 1% mannose. After extensive washing with PBS, bound horseradish peroxidase was detected by adding 100 μl of TMB substrate (Kirkegaard and Perry Laboratories, KPL) and absorbance was read at 650 nm. […] All incubations, unless stated otherwise, were performed at 37 C. The colorimetric reaction was developed in the presence of TMB substrate at RT and absorbance was read at 650 nm.

[2] = tested on: mAb21; assay: mAb21 binding time course to immobilized fimbriae and three-state model; conditions: for mAb21 binding over time course: absence of mannose, 10 sec to 2 hours; for keq ± SEM: Keq=kact/kdeact; for time to 50% of the maximal optical density (OD50) of mAb21 binding: presence of soluble mannose
Method: The assays were performed as described previously. In brief. 96-well microtiter plates were coated overnight with purified type 1 fimbriae in 0.02 M NaHCO3 buffer at pH 9.6 (0.1 mg/ml), followed by washes and quenching with 0.2% BSA in PBS. The immobilized fimbriae were incubated with HRP at a concentration of 50 μg/ml for 1 h in the absence or presence of 1% mannose. After extensive washing with PBS, bound horseradish peroxidase was detected by adding 100 μl of TMB substrate (Kirkegaard and Perry Laboratories, KPL) and absorbance was read at 650 nm. […] After the incubation for indicated time, the plates were washed extensively with PBS and FimH-mAb21 complexes were detected using HRP-conjugated goat anti-mouse antibody (Sigma-Aldrich, diluted 1:3000). All incubations, unless stated otherwise, were performed at 37 C. The colorimetric reaction was developed in the presence of TMB substrate at RT and absorbance was read at 650 nm.
For our modeling, we made the following definitions and assumptions.
To estimate kmAb21, we assumed that LD^A27V-PD^FocH is essentially all in HAS in the presence of mannose, so we fit high time-resolution data with a saturable binding model,
We then estimated kact and kdeact for all four variants in the presence and absence of mannose by fitting this model to the data by minimizing the least square error between the model and data points divided by the value of the data. Parameters were estimated independently for the data from each day the experiment was performed, to provide multiple values of each constant.
There were two limitations to using this model to estimate these parameters. […] Second, in two additional conditions—LD^wt-PD^wt in the presence of mannose and LD^A27V-PD^wt in the absence of mannose, a wide range of values of the rate constants produced the same fitting error. To identify a lower bound for the rate constants, we fit kact while holding kdeact constant over a wide range of values and observed that the error was high for low rates but reached a plateau at higher rates. We identified the lowest kdeact and corresponding kact values at which the error was no more than 10% that of all higher values. Throughout this plateau, Keq=kact/kdeact remained within a tight and reproducible range, so was well-determined by the model. For these two conditions, the lower bounds for the two kinetic constants and the upper and lower bound for the equilibrium constants are reported in Table 8.
For the remaining five conditions, the rate constants as well as equilibrium constants were reproducible for a wide range of initial guesses, and between replicate experiments, so we consider these to be reliable. […] These values were consistent with the estimated bounds and are also reported in FIGS. 20C and 20D for illustration.

[3] = tested on: guinea pig red blood cells (RBC); assay: RBC aggregation under dynamic (rocking) conditions; assay type: cell-based
Method: (§1) Guinea pig RBC (Colorado Serum Company) were washed with PBS three times. 50 μl of RBC suspension (1%) was mixed 1:1 with 50 μl of 4×10^8 cfu of type 1 fimbriated bacteria in a glass plate in the absence and presence of 1% αmm and continuously mixed by gently rocking at ˜2-3 s^−1. The aggregation of RBC was visually scored and the time at which noticeable aggregation was observed and reported in minutes (min). In some experiments, bacterial cells were first pre-incubated for 5 min with 67 μg/ml of mAbs in the glass plate and then mixed with RBC suspension in the absence and presence of 1% αmm. RBC rosette-formation assay under was performed by mixing equal amounts of serially diluted bacterial sus-pensions (starting from OD540 nm 1.0) and a 1% suspension of RBC in U-bottom microtiter plate wells as described previously.
(§2) Finally, we compared cell binding ability of the FimH-expressing bacteria under static and dynamic conditions by using two classical set-ups with agglutination of guinea pig red blood cells (RBC)—the model cells for type 1 flmbriae-mediated bacterial adhesion. In the static assays, different dilutions of bacteria were combined with a suspension of RBC in U-shaped microtiter wells and allowed to settle without shaking. […]

[4] = tested on: guinea pig red blood cells (RBC); assay: RBC agglutination (rosette) under static conditions; assay type: cell-based
Method: as §1, §2

[5] = tested on: RNase B; assay: BLI kinetics of FimH fimbriae binding to RNase B; design: species or system bovine; conditions: RNAseB binding
Method: To test the kinetics of fimbriae binding to RNase B, streptavidin-coated biosensors (SA, FortéBio) were first allowed to bind biotinylated RNase B (applied at a concentration of 10-20 μg/ml in 0.2% BSA HBS). […] The dissociation of the fimbriae-RNase B complexes was conducted in 0.2% BSA HBS. The binding sensorgrams after single reference subtraction (biosensors with 0.2% BSA HBS, or Fab824, respectively) were used for global fitting. […] The standard error that was given in the table for the kinetic parameters relates to the “fit” of the data to the model.

[6] = tested on: guinea pig RBC; assay: Red blood cell (RBC) aggregation by bacteria under rocking (Example 1); assay type: cell-based
Method: Guinea pig RBC (Colorado Serum Company) were washed with PBS three times. 50 μl of RBC suspension (1%) was mixed 1:1 with 50 μl of 4×10^8 of type 1 fimbriated bacteria in a glass plate in the absence and presence of 1% αmm and continuously mixed at high speed on rotator (Model 260300F, Fisher Scientific) for extended period of time. The aggregation of RBC was visually scored and the time at which noticeable aggregation was observed and reported in minutes (min). In some experiments, bacterial cells were first pre-incubated for 5 min with 67 μg/ml of mAbs in the glass plate and then mixed with RBC suspension in the absence and presence of 1% αmm.

[7] = biological target: T1, FimH^wt (FimH adhesin of E. coli K12) (Escherichia coli K12, UniProt P08191 22-300); assay: BLI; fimbriae on biotinylated RNase B on streptavidin probe; conformational change model; PBS
T1 construct: also called FimH^K12; LD^A27V-PD^wt
Method: To test the kinetics of fimbriae binding to RNase B, streptavidin-coated biosensors (SA, FortéBio) were first allowed to bind biotinylated RNase B (applied at a concentration of 10-20 μg/ml in 0.2% BSA HBS). […] The dissociation of the fimbriae-RNase B complexes was conducted in 0.2% BSA HBS. […] The standard error that was given in the table for the kinetic parameters relates to the “fit” of the data to the model.

[8] = tested on: asialofetuin; assay: FmIH-dependent bacterial adhesion to asialofetuin; assay type: cell-based
Method: (§3) FmIH-dependent bacterial adhesion was analyzed as described previously with minor modifications (47). Briefly, Immulon 4HBX microtiter plates (Thermo Electron Corp.) were coated with 20 μg/mL of asialofetuin (Sigma-Aldrich) and plates were quenched with 0.2% BSA in PBS. Bacterial suspensions in PBS (OD540=2) were added to each well in a volume of 100 μl and plates were spun for 2 min at 750×g. After extensive washing, bound bacteria were stained with 0.1% (vol/vol) crystal violet for 20 min at room temperature and were washed several times with water. Then 100 μl of 50% (vol/vol) ethanol was added to each well, and the absorbance at a wavelength of 600 nm was measured. For inhibition, bacterial binding was tested in the presence of 1% galactose (Sigma).
as §3, with “[Kisiela D I, et al. (2015) Inhibition and Reversal of Microbial Attachment by an Antibody with Parasteric Activity against the FimH Adhesin of Uropathogenic E. coli. PLoS Pathog 11: e1004857].” for “(47).”, “(ThermoFisher Scientific)” for “(Thermo Electron Corp.)”

[9] = full-length FmIH in type 1 fimbrial background

Molecule: LD^wt-PD^wt: naturally-occurring FimH from fecal E. coli strain F18, evolutionary wild-type
- binding of HRP in complex with mAb824 [1]: remained very weak
- mAb21 binding over time course [2]: No reliably measurable binding
- kact ± SEM ([2]; mannose presence): >2.0 × 10^−4
- kdeact ± SEM ([2]; mannose presence): >8.5 × 10^−2
- keq ± SEM ([2]; mannose presence): 1.7 × 10^−2 to 2.3 × 10^−2
- mAb21 binding to fimbriae ([2]; presence of 1% alpha-methyl-mannoside, 1 h): somewhat lower
- time to 50% of the maximal optical density (OD50) of mAb21 binding [2]: ~30 min
- Minimal IC of mannose [3]: .1%
- RBC binding / rosette formation [4]: could not bind RBC at any concentration

Molecule: FimH^wt: 'wild-type' FimH adhesin from E. coli K12; b242: K12 and J96 express LD^A27V-PD^wt
- koff higher relative to FimH^FocH [5]: ~1000 fold
- kon higher relative to FimH^FocH [5]: ~50 fold
- lower affinity relative to FimH^FocH [5]: ~10 fold
- binding of HRP in complex with mAb824 [1]: remained very weak
- mAb21 binding over time course [2]: only marginal at the later time points
- kact ± SEM ([2]; mannose absence): >8.8 × 10^−5
- kdeact ± SEM ([2]; mannose absence): >2.3 × 10^0
- keq ± SEM ([2]; mannose absence): 1.5 × 10^−3 to 4.0 × 10^−3
- kact ± SEM ([2]; mannose presence): 3.4 × 10^−3 ± 0.4 × 10^−3
- kdeact ± SEM ([2]; mannose presence): 8.7 × 10^−3 ± 1.7 × 10^−2
- keq ± SEM ([2]; mannose presence): 3.9 × 10^−1 ± 0.9 × 10^−1
- time to 50% of the maximal optical density (OD50) of mAb21 binding [2]: ~3 min
- Minimal IC of mannose [3]: .1%
- RBC binding / rosette formation [4]: only at a relatively high concentration (low titer) of bacteria
- Time upon which noticeable aggregation of RBC was observed ([6]; mAb824 pre-incubation (67 μg/ml)): >60 min
- Time upon which noticeable aggregation of RBC was observed ([6]; αmm (1%)): >60 min

B1: ribonuclease B (RNase B), bovine (enzyme, UniProt P61823 27-150, looked up)
chain: KETAAAKFERQHMDSSTSAASSSNYCNQMMKSRNLTKDRCKPVNTFVHESLADVQAVCSQKNVACKNGQTNCYQSYSTMSITDCRETGSSKYPNCAYKTTQANKHIIVACEGNPYVPVHFDASV
modifications: N-linked high-mannose (Man5) oligosaccharides; biotinylated with Sulfo-NHS-LC-Biotin
- Kd [7]: 149 nM
- koff [7]: 0.256 s⁻¹
- kon [7]: 1.1e+06 M⁻¹ s⁻¹

B2: V33E (protein, listed as Escherichia coli)
chain: FSCNVDGGSSIGAGTTSVYVNLDPVIQPGQNLEVDLSQHISCWNDYGGWYDTDHINLVQGSAFAGSLQSYKGSLYWNNVTYPFPLTTNTNVLDIGDKTPMPLPLKLYITPVGAAGGVVIKAGEVIARIHMYKIATLGSGNPRNFTWNIISNNSVVMPTGG
- bacterial binding to asialofetuin [8, 9]: activation of the binding phenotype

B3: L32E (protein, listed as Escherichia coli)
chain: FSCNVDGGSSIGAGTTSVYVNLDPVIQPGQNEVVDLSQHISCWNDYGGWYDTDHINLVQGSAFAGSLQSYKGSLYWNNVTYPFPLTTNTNVLDIGDKTPMPLPLKLYITPVGAAGGVVIKAGEVIARIHMYKIATLGSGNPRNFTWNIISNNSVVMPTGG
- bacterial binding to asialofetuin [8, 9]: did not increase binding
- bacterial binding to asialofetuin ([8]; mutation in FmIH^FocH): decreased the binding properties of FmIH^FocH

B4: F63E (protein, listed as Escherichia coli)
chain: FSCNVDGGSSIGAGTTSVYVNLDPVIQPGQNLVVDLSQHISCWNDYGGWYDTDHINLVQGSAEAGSLQSYKGSLYWNNVTYPFPLTTNTNVLDIGDKTPMPLPLKLYITPVGAAGGVVIKAGEVIARIHMYKIATLGSGNPRNFTWNIISNNSVVMPTGG
- bacterial binding to asialofetuin [8, 9]: activation of the binding phenotype

B5: FmIH^FocH: wild-type FmIH lectin domain fused to the heterogeneous FocH-type pilin domain (protein)
chain: FSCNVDGGSSIGAGTTSVYVNLDPVIQPGQNLVVDLSQHISCWNDYGGWYDTDHINLVQGSAFAGSLQSYKGSLYWNNVTYPFPLTTNTNVLDIGDKTPMPLPLKLYITPVGAAGGVVIKAGEVIARIHMYKIATLGSGNPRNFTWNIISNNSVVMPTGGCDVSARDVTVTLPDYPGSVPIPLTVRCDQTQSVSYTLSGSVADAGNSIFTNTASFSPAQGVGVQLTRNGTIIPANNTVSLGAVGTSAVSLGLTANYARTGGQVTAGNVQSIIGVTFVYQ
- bacterial binding to asialofetuin [8, 9]: increased binding relative to the wild-type adhesin
